Source: patent US20250114374A1, “BCL-2 INHIBITORS” (Newave Pharmaceutical Inc., priority 2021, published 2025)

The compounds below were run on RS4; 11 with G101V mutation (assay: In vitro anti-proliferation assay (ATPlite luminescence) in BCL-2-dependent ALL cell line RS4;11 with G101V mutation). Settings: cellular anti-proliferative IC50, about 72 hours, medium with 10% FBS, ATPlite; read-out: RS411-G101V IC50.
Assay type: cell-based
Procedure, shortened: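 IC50 came from luminescent ATP quantification (ATPlite) following cell lysis. Compound dose ranges were applied for roughly 72 h to about 1×10^4 G101V-mutant RS4;11 cells per well, in 10% FBS medium.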

In order of falling IC50:
1. Cc1ccccc1[C@@H]1CN(Cc2ccc(N3CCOC[C@H]3C)c(F)c2)CCN1C1CC2(CCN(c3ccc(C(=O)NS(=O)(=O)c4ccc(NC[C@H]5CC[C@](C)(O)CC5)c([N+](=O)[O-])c4)c(N4c5cc6cc[nH]c6nc5O[C@H]5COCC[C@@H]54)c3)CC2)C1 [Example 155, 2-[(3R,8S)-2,5-dioxa-9,15,17-triazatetracyclo[8.7.0.0^{3,8}.0^{12,16}]heptadeca-1(10),11,13,16-tetraen-9-yl]-4-{2-[(2R)-4-({3-fluoro-4-[(3R)-3-methylmorpholin-4-yl]phenyl}methyl)-2-(2-methylphenyl)piperazin-1-yl]-7-azaspiro[3.5]nonan-7-yl}-N-[3-nitro-4-({[(1r,4r)-4-hydroxy-4-methylcyclohexyl]methyl}amino)benzenesulfonyl]benzamide]  91.8 nM
2. CC(C)Oc1ccccc1[C@H]1CN(Cc2ccc(N3CCOC[C@H]3C)c(F)c2)CCN1C1CC2(CCN(c3ccc(C(=O)NS(=O)(=O)c4ccc(NCC5CCC(C)(O)CC5)c([N+](=O)[O-])c4)c(N4c5cc6cc[nH]c6nc5O[C@H]5COCC[C@@H]54)c3)CC2)C1 (stereo partly drawn) [Example 153, 2-[(3R,8S)-2,5-dioxa-9,15,17-triazatetracyclo[8.7.0.0^{3,8}.0^{12,16}]heptadeca-1(10),11,13,16-tetraen-9-yl]-4-{2-[(2S)-4-({3-fluoro-4-[(3R)-3-methylmorpholin-4-yl]phenyl}methyl)-2-(2-isopropoxyphenyl)piperazin-1-yl]-7-azaspiro[3.5]nonan-7-yl}-N-[3-nitro-4-({[(1r,4r)-4-hydroxy-4-methylcyclohexyl]methyl}amino)benzenesulfonyl]benzamide]  47.1 nM
3. Cc1cc2c(CN3CCN(C4CC5(CCN(c6ccc(C(=O)NS(=O)(=O)c7ccc(NCC8CCC(C)(O)CC8)c([N+](=O)[O-])c7)c(N7c8cc9cc[nH]c9nc8O[C@H]8COCC[C@@H]87)c6)CC5)C4)[C@@H](c4ccccc4OC(C)C)C3)cnc(N3CCOCC3)c2o1 (stereo partly drawn) [Example 147, 2-[(3R,8S)-2,5-dioxa-9,15,17-triazatetracyclo[8.7.0.0^{3,8}.0^{12,16}]heptadeca-1(10),11,13,16-tetraen-9-yl]-4-{2-[(2S)-2-(2-isopropoxyphenyl)-4-{[2-methyl-7-(morpholin-4-yl)furo[2,3-c]pyridin-4-yl]methyl}piperazin-1-yl]-7-azaspiro[3.5]nonan-7-yl}-N-[3-nitro-4-({[(1r,4r)-4-hydroxy-4-methylcyclohexyl]methyl}amino)benzenesulfonyl]benzamide]  31.9 nM
4. COc1cc(CN2CCN(C3CC4(CCN(c5ccc(C(=O)NS(=O)(=O)c6ccc(NC[C@H]7CC[C@](C)(O)CC7)c([N+](=O)[O-])c6)c(N6c7cc8cc[nH]c8nc7O[C@H]7COCC[C@@H]76)c5)CC4)C3)[C@@H](c3ccccc3OC(C)C)C2)ccc1C1CC1 [Example 157, 4-(2-((S)-4-(4-cyclopropyl-3-methoxybenzyl)-2-(2-isopropoxyphenyl)piperazin-1-yl)-7-azaspiro[3.5]nonan-7-yl)-N-((4-((((1r,4r)-4-hydroxy-4-methylcyclohexyl)methyl)amino)-3-nitrophenyl)sulfonyl)-2-((5aS,9aR)-6,7,9,9a-tetrahydro-1H-pyrano[3,4-b]pyrrolo[3′,2′:5,6]pyrido[3,2-e][1,4]oxazin-5(5aH)-yl)benzamide]  31.8 nM
5. COc1cc(CN2CCN(C3CC4(CCN(c5ccc(C(=O)NS(=O)(=O)c6ccc(NCC7CCC(C)(O)CC7)c([N+](=O)[O-])c6)c(N6c7cc8cc[nH]c8nc7O[C@H]7COCC[C@@H]76)c5)CC4)C3)[C@@H](c3ccccc3C)C2)cnc1OC (stereo partly drawn) [Example 149, 4-(2-((S)-4-((5,6-dimethoxypyridin-3-yl)methyl)-2-(o-tolyl)piperazin-1-yl)-7-azaspiro[3.5]nonan-7-yl)-N-((4-((((1r,4r)-4-hydroxy-4-methylcyclohexyl)methyl)amino)-3-nitrophenyl)sulfonyl)-2-((5aS,9aR)-6,7,9,9a-tetrahydro-1H-pyrano[3,4-b]pyrrolo[3′,2′:5,6]pyrido[3,2-e][1,4]oxazin-5(5aH)-yl)benzamide]  28.3 nM
6. CC(C)Oc1ccccc1[C@H]1CN(Cc2ccc3c(c2)OCCO3)CCN1C1CC2(CCN(c3ccc(C(=O)NS(=O)(=O)c4ccc(NCC5CCC(C)(O)CC5)c([N+](=O)[O-])c4)c(N4c5cc6cc[nH]c6nc5O[C@H]5COCC[C@@H]54)c3)CC2)C1 (stereo partly drawn) [Example 152, 4-(2-((S)-4-((2,3-dihydrobenzo[b][1,4]dioxin-6-yl)methyl)-2-(2-isopropoxyphenyl)piperazin-1-yl)-7-azaspiro[3.5]nonan-7-yl)-N-((4-((((1r,4r)-4-hydroxy-4-methylcyclohexyl)methyl)amino)-3-nitrophenyl)sulfonyl)-2-((5aS,9aR)-6,7,9,9a-tetrahydro-1H-pyrano[3,4-b]pyrrolo[3′,2′:5,6]pyrido[3,2-e][1,4]oxazin-5(5aH)-yl)benzamide]  28.3 nM
7. Cc1ccccc1[C@@H]1CN(Cc2ccc(F)c(F)c2)CCN1C1CC2(CCN(c3ccc(C(=O)NS(=O)(=O)c4ccc(NCC5CCC(C)(O)CC5)c([N+](=O)[O-])c4)c(N4c5cc6cc[nH]c6nc5O[C@H]5COCC[C@@H]54)c3)CC2)C1 (stereo partly drawn) [Example 154, 4-{2-[(2R)-4-[(3,4-difluorophenyl)methyl]-2-(2-methylphenyl)piperazin-1-yl]-7-azaspiro[3.5]nonan-7-yl}-2-[(3R,8S)-2,5-dioxa-9,15,17-triazatetracyclo[8.7.0.0^{3,8}.0^{12,16}]heptadeca-1(10),11,13,16-tetraen-9-yl]-N-[3-nitro-4-({[(1r,4r)-4-hydroxy-4-methylcyclohexyl]methyl}amino)benzenesulfonyl]benzamide]  27.6 nM
8. COc1c(CN2CCN(C3CC4(CCN(c5ccc(C(=O)NS(=O)(=O)c6ccc(NCC7CCC(C)(O)CC7)c([N+](=O)[O-])c6)c(N6c7cc8cc[nH]c8nc7O[C@H]7COCC[C@@H]76)c5)CC4)C3)[C@@H](c3ccccc3OC(C)C)C2)ccnc1N1CCOCC1 (stereo partly drawn) [Example 151, N-((4-((((1r,4r)-4-hydroxy-4-methylcyclohexyl)methyl)amino)-3-nitrophenyl)sulfonyl)-4-(2-((S)-2-(2-isopropoxyphenyl)-4-((3-methoxy-2-morpholinopyridin-4-yl)methyl)piperazin-1-yl)-7-azaspiro[3.5]nonan-7-yl)-2-((5aS,9aR)-6,7,9,9a-tetrahydro-1H-pyrano[3,4-b]pyrrolo[3′,2′:5,6]pyrido[3,2-e][1,4]oxazin-5(5aH)-yl)benzamide]  19.8 nM
9. COc1nccc(CN2CCN(C3CC4(CCN(c5ccc(C(=O)NS(=O)(=O)c6ccc(NCC7CCC(C)(O)CC7)c([N+](=O)[O-])c6)c(N6c7cc8cc[nH]c8nc7O[C@H]7COCC[C@@H]76)c5)CC4)C3)[C@@H](c3ccccc3OC(C)C)C2)c1OC (stereo partly drawn) [Example 150, 4-(2-((S)-4-((2,3-dimethoxypyridin-4-yl)methyl)-2-(2-isopropoxyphenyl)piperazin-1-yl)-7-azaspiro[3.5]nonan-7-yl)-N-((4-((((1r,4r)-4-hydroxy-4-methylcyclohexyl)methyl)amino)-3-nitrophenyl)sulfonyl)-2-((5aS,9aR)-6,7,9,9a-tetrahydro-1H-pyrano[3,4-b]pyrrolo[3′,2′:5,6]pyrido[3,2-e][1,4]oxazin-5(5aH)-yl)benzamide]  14.1 nM
10. Cc1ccccc1[C@@H]1CN(CC2CCOCC2)CCN1C1CC2(CCN(c3ccc(C(=O)NS(=O)(=O)c4ccc(NC[C@H]5CC[C@](C)(O)CC5)c([N+](=O)[O-])c4)c(N4c5cc6cc[nH]c6nc5O[C@H]5COCC[C@@H]54)c3)CC2)C1 [Example 156, 2-[(3R,8S)-2,5-dioxa-9,15,17-triazatetracyclo[8.7.0.0^{3,8}.0^{12,16}]heptadeca-1(10),11,13,16-tetraen-9-yl]-4-{2-[(2R)-2-(2-methylphenyl)-4-(oxan-4-ylmethyl)piperazin-1-yl]-7-azaspiro[3.5]nonan-7-yl}-N-[3-nitro-4-({[(1r,4r)-4-hydroxy-4-methylcyclohexyl]methyl}amino)benzenesulfonyl]benzamide]  12.2 nM
11. Cc1cc2c(CN3CCN(C4CC5(CCN(c6ccc(C(=O)NS(=O)(=O)c7ccc(NCC8CCC(C)(O)CC8)c([N+](=O)[O-])c7)c(N7c8cc9cc[nH]c9nc8O[C@H]8COCC[C@@H]87)c6)CC5)C4)[C@H](c4ccccc4C)C3)cnc(N3CCOCC3)c2o1 (stereo partly drawn) [Example 146, 2-[(3R,8S)-2,5-dioxa-9,15,17-triazatetracyclo[8.7.0.0^{3,8}.0^{12,16}]heptadeca-1(10),11,13,16-tetraen-9-yl]-4-{2-[(2R)-4-{[2-methyl-7-(morpholin-4-yl)furo[2,3-c]pyridin-4-yl]methyl}-2-(2-methylphenyl)piperazin-1-yl]-7-azaspiro[3.5]nonan-7-yl}-N-[3-nitro-4-({[(1r,4r)-4-hydroxy-4-methylcyclohexyl]methyl}amino)benzenesulfonyl]benzamide]  8.2 nM
12. Cc1ccccc1[C@@H]1CN(Cc2ccnc3c2OCC(C)(C)O3)CCN1C1CC2(CCN(c3ccc(C(=O)NS(=O)(=O)c4ccc(NCC5CCC(C)(O)CC5)c([N+](=O)[O-])c4)c(N4c5cc6cc[nH]c6nc5O[C@H]5COCC[C@@H]54)c3)CC2)C1 (stereo partly drawn) [Example 148, 4-(2-((R)-4-((3,3-dimethyl-2,3-dihydro-[1,4]dioxino[2,3-b]pyridin-8-yl)methyl)-2-(o-tolyl)piperazin-1-yl)-7-azaspiro[3.5]nonan-7-yl)-N-((4-((((1r,4r)-4-hydroxy-4-methylcyclohexyl)methyl)amino)-3-nitrophenyl)sulfonyl)-2-((5aS,9aR)-6,7,9,9a-tetrahydro-1H-pyrano[3,4-b]pyrrolo[3′,2′:5,6]pyrido[3,2-e][1,4]oxazin-5(5aH)-yl)benzamide]  6.3 nM
